In patent publication US5442111A, “3,5-di-tetriary-4-butyl-4-hydroxyphenyloxy- or tioalkylene N-hydroxyamides, N-hydroxythioamides, N-hydroxyureas, and N-hydroxythioureas as 5-lipoxygenase inhibitors” (Warner-Lambert Company, priority 1991, dated 1995):

System: 5-lipoxygenase
Assay: ARBL whole cell 5-lipoxygenase assay (LTB4 formation in RBL-1 cells stimulated with calcium ionophore A23187, RIA)
Type: cell-based
Settings: @ 10^-6 (concentration unit not given); rat RBL-1 whole cells, A23187 5 μM, 10 min preincubation
Procedure: ARBL WHOLE CELL 5-LIPOXYGENASE ASSAY
The rat basophilic leukemia cell line (RBL-1) was obtained from the American Type Culture Collection (Rockville, Md.).
A radioimmunoassay (RIA) kit of LTB was obtained from Amersham (Arlington Heights, Ill.) and Seragen (Boston, Mass.), respectively.
RBL-1 cells are grown in suspension culture in Eagle's minimum essential medium supplemented with 12% fetal bovine serum at 37° C. in an incubator supplied with air-5% carbon dioxide. Cells are harvested by centrifugation. They are washed with cold phosphate buffered saline pH 7.4 (PBS; NaCl, 7.1 g; NaHPO, 1.15 g; KHPO, 0.2 g; and KCl, 0.2 g/l). Cells are finally suspended in PBS containing 1.0 mM calcium at a density of […] cells/ml. Cells are incubated with and without test agent (in DMSO) (1% DMSO is without effect on arachidonic acid metabolism) for ten minutes at room temperature. Calcium ionophore A23187 (5 μM) is added and cells are incubated for seven minutes at 37° C. The reaction is stopped by chilling the tubes on ice for ten minutes. Cells are separated by centrifugation and the supernatant is stored at -20°. Aliquots (100 μl) are analyzed for LTB using the radioimmunoassay kit as provided by the supplier.
The following table contains biochemical data obtained from this whole cell assay as a percentage of inhibition.

## CNC(=S)N(O)C(C)CSc1cc(C(C)(C)C)c(O)c(C(C)(C)C)c1 (centres unmarked) [Example 1, N-[2-[[3,5-Bis(1,1-dimethylethyl)-4-hydroxyphenyl]thio]-1-methylethyl]-N-hydroxy-N'-methyl Thiourea]
  ARBL @ 10^-6, % inhibition for LTB4: 100%

## CC(CSc1cc(C(C)(C)C)c(O)c(C(C)(C)C)c1)N(O)C(N)=O (centres unmarked) [Example 2, N-[2-[[3,5-Bis(1,1-dimethylethyl)-4-hydroxyphenyl]thio]-1-methylethyl]-N-hydroxy Urea]
  ARBL @ 10^-6, % inhibition for LTB4: 100%
